Laboratory results as given in patent US20250275993A1, “GLYCOSYLATION INHIBITORS AS THERAPEUTICS FOR STROKE” (The Regents of the University of California, priority 2022, published 2025).

Key:
AML12 liver cells = experiment: AML12 proliferation assay; format: cell-based, mouse
Experimental: Proliferation assays with fibroblasts were done in low-glucose DMEM containing 1% FBS, with or without 10 ng/ml bFGF, or 100 ng/ml human EGF and the assay was ended at day 3. ARPE-19 cells were gently lifted with 0.025% trypsin and plated in RtEGM media (Clonetics) containing 2% FBS, L-glutamine, human bFGF and GA-1000. Once cells were attached to plates, serum-free RtEGM media was used to maintain the cultures. For proliferation assays, 1500 human RPE cells were plated into 96-well plates in low-glucose DMEM containing 1% FBS. A673, U87MG, Calu6 and AML12 cells were grown until confluent and were then harvested and re-suspended in appropriate assay media. For proliferation assays, cells were plated at the density of 1000-2000 cells/well in low-glucose DMEM containing 5% FBS or otherwise stated. Bovine pituitary cells (pituitary folliculostellate cells) were isolated as previously described. For proliferation assays with human epidermal keratinocytes, human DMVECs and human dermal fibroblast cells, 1000 cells/well were plated in low-glucose DMEM containing 1% FBS with or without various growth factors. The assay was ended at day 3 for bovine pituitary cells and at day 4 for all the other cell types. […] Four days later, tumor cell growth was measured by the MTS assay (Promega, Madison, WI), a colorimetric assay that measures metabolic activity of viable cells. […]

HUVEC = HUVEC scratch assay; format: cell-based, human; details: 40 μM ManN in combination with 50 ng/ml VEGF
Experimental: BCECs (passage 6-10) and HUVEC (passage 6-8) were used in this assay.
Cells were grown until about 80% confluency in 6-well plates, washed twice with PBS and then starved in serum-free DMEM (low Glucose, Hyclone) for 5 hrs before making a “scratch” using 1 ml tip. Cell monolayers were briefly washed once with serum-free media, followed by various treatments in media containing 1% FBS. 48 hrs later, the assay was stopped by adding 2 ml 4% paraformaldehyde. 20 min later, fixed cells were stained with 1 ml Crystal Violet (Sigma). Plates were washed gently under the running tap water and air-dried before taking pictures. Images were acquired by ZEISS Discovery V8 SteREO microscopy equipped with PixeLINK Megapixel FireWire camera. Quantification of wound closure was done using AxioVision LE Rel.4.4 software. Six images were taken for each sample and six measurements (in pixel) were made on each image using AxioVision LE Re1.4.4 software.

BCEC = BCEC transwell migration assay; format: cell-based, bovine; details: ManN at 40 μM
Experimental: HUVECs (passage 6-8) were cultured and serum-starved as described in “Western Blots”. Ten thousand cells in […] of EBM-2 medium were then added to the upper chamber of […] pore size cell culture inserts (Falcon) coated with 0.1% gelatin. The lower compartment was filled with […] EBM-2 medium containing various agents. The plates were incubated at 37° C. to allow migration. After 4 hrs, cells were fixed with 4% PFA for 20 min and then stained with crystal violet (Sigma-Aldrich) for 20 min at RT. Migrated cells on the bottom side of the insert membrane were quantified by counting whole area of the insert at 40× magnification. The experiments were carried out in triplicate and repeated three times. BCEC migration was set up similarly, except that wells were coated with FN, cells were suspended in 1% serum media and migration time was 18-24 hrs.

β-Glucosidase = experiment: β-glucosidase activity assay; format: biochemical, almond; details: up to 2 mM
Experimental: a-mannosidase activity was measured using substrate p-nitrophenyl α-mannopyranoside (1 mM). Enzyme from Jack Bean (M7257) (final concentration of 0.077 U) was incubated at 37° C. in a final volume of 50 μl of 50 mM potassium phosphate buffer, pH 7.5. α-glucosidase was assayed with substrate p-nitrophenyl a-glucoside (7 mM). Enzyme from Saccharomyces cerevisiae-type 1 (Sigma, G5003) (final concentration of 0.1 U) was incubated at 37° C. in a final volume of 50 μl of PBS, pH 7.5. β-Glucosidase was assayed with substrate 4-nitrophenyl β-D-glucopyranoside (Roche). Enzyme from almond (Sigma, G0395) (final concentration of 0.002 U) was incubated at 37° C. in a final volume of 50 μl of PBS, pH 7.5 […]. The incubation was stopped by addition of an equal volume of acid-based stop solution (R&D systems, 895032). Enzymatic activity was measured at 405 nm. α-glucosidase from Saccharomyces cerevisiae type I (G5003) with p-nitrophenyl α-D-glucopyranoside (Sigma, N1377) as the substrate.

bFGFR 1 or β1 integrin = experiment: Western blot of protein molecular mass in non-endothelial cells; format: cell-based; details: 400 μM and 2 mM
Experimental: Cells were allowed to reach-80% confluency in 12-well plates. […] At various time points, plates were taken out of the incubator and kept on ice. Cell monolayers were first washed once with ice-cold PBS before lysis with 250 μI of Pierce RIPA buffer (ThermoFisher Scientific, Rockford, IL) or use 50 mM Tris-HCl (pH 7.6), 150 mM NaCl, 10% Glycerol, 1% NP-40 containing protease/Phosphatase inhibitor cocktail (100×) (Cell signaling, #5872). Lysates were collected and mixed with 4× Bolt LDS Sample Buffer (Novex, Carlsbad, CA) in the presence of Halt protease inhibitors and phosphatase inhibitor cocktail (ThermoFisher scientific, #NP0007). The samples were subjected to SDS-PAGE (Bolt 4-12% Bis-Tris Plus, Invitrogen) using Bolt MES SDS running buffer or NuPAGE 3-8% Tris-Acetate gel using Tris-Acetate SDS running buffer (Novex). HUVECs (passage 6-8) were plated in EBM-2 basal medium (Lonza) with 0.2% FBS. Following overnight culture, cells were serum-starved in EBM-2 medium for 4 hrs prior to treatment with 50 ng/ml of VEGF165 or vehicle controls for various lengths. Equal amounts of protein lysates were analyzed by SDS-PAGE and blotted with the indicated antibodies. Proteins were transferred using Tris-Glycine buffer with 20% Methanol (Proteonomics grade) (Apex BioResearch Products). […]

N[C@H](C=O)[C@@H](O)[C@H](O)[C@H](O)CO [ManN, 2-Amino-2-deoxy-D-mannose]
sensitivity of AML12 to ManN toxicity (AML12 liver cells; 5 mM level of ManN): most sensitive one | proliferation of AML12 (AML12 liver cells; alone or in combination with growth factors): no increases in proliferation | HUVEC wound closure (HUVEC): stimulation of migration and wound closure | additivity with VEGF in BCEC migration (BCEC): significant additivity with VEGF in promoting BCEC migration | effect on β-glucosidase (β-Glucosidase): No effect | molecular mass change of bFGFR 1 or β1 integrin in non-ECs (bFGFR 1 or β1 integrin): could induce molecular mass change
